Experimental data published in publication PMC4620497 (Scientific Reports, 2015).

Legend:
[1] = biological target: T1, ABL1(H396P)-nonphosphorylated (Homo sapiens, UniProt P00519, H396P); assay: KINOMEscan panel screen; format: binding; conditions: read-out: Percent Control(%)
T1 construct: purchased DiscoveRx KINOMEscan (Ambit Biosciences)

[2] = biological target: T2, ABL1(Q252H)-nonphosphorylated (Homo sapiens, UniProt P00519, Q252H); assay: KINOMEscan panel screen; format: binding; conditions: read-out: Percent Control(%)
T2 construct: purchased DiscoveRx KINOMEscan (Ambit Biosciences)

[3] = biological target: T3, ABL1(T315I)-phosphorylated (Homo sapiens, UniProt P00519, T315I); assay: KINOMEscan panel screen; format: binding; conditions: read-out: Percent Control(%)
T3 construct: purchased DiscoveRx KINOMEscan (Ambit Biosciences)

[4] = biological target: T4, BRAF (Homo sapiens, UniProt P15056); assay: KINOMEscan panel screen; format: binding; conditions: read-out: Percent Control(%)
T4 construct: purchased DiscoveRx KINOMEscan (Ambit Biosciences)

[5] = biological target: T5, CAMK2G (Homo sapiens, UniProt Q13555); assay: KINOMEscan panel screen; format: binding; conditions: read-out: Percent Control(%)
T5 construct: purchased DiscoveRx KINOMEscan (Ambit Biosciences)

[6] = biological target: T6, CDC2L5 (Homo sapiens, UniProt Q14004); assay: KINOMEscan panel screen; format: binding; conditions: read-out: Percent Control(%)
T6 construct: purchased DiscoveRx KINOMEscan (Ambit Biosciences)
Experimental: (§1) In vitro KINOMEscan kinase binding assays (Ambit Biosciences) were employed to determine the binding affinity (Kd) of compounds[41][42].
(§2) Supplementary Table S3. Matrix of compound screen for SKLB -677 obtained through service provided by DiscoveRX. The compound was screened at a concentration of 10μM. Results are given in %control.
(§3) KINOMEscan Gene Symbol Entrez Gene Percent Compound
(§4) Symbol Control(%) Concentration (μM) […]

[7] = biological target: T7, PRP4 (Homo sapiens, UniProt Q13523); assay: KINOMEscan panel screen; format: binding; conditions: read-out: Percent Control(%)
T7 construct: purchased DiscoveRx KINOMEscan (Ambit Biosciences)
Experimental: as §1, §2, §3, §4

[8] = biological target: T8, CLK3 (Homo sapiens, UniProt P49761); assay: KINOMEscan panel screen; format: binding; conditions: read-out: Percent Control(%)
T8 construct: purchased DiscoveRx KINOMEscan (Ambit Biosciences)

[9] = biological target: T9, DYRK1B (Homo sapiens, UniProt Q9Y463); assay: KINOMEscan panel screen; format: binding; conditions: read-out: Percent Control(%)
T9 construct: purchased DiscoveRx KINOMEscan (Ambit Biosciences)
T9 sequence (Q9Y463 whole entry): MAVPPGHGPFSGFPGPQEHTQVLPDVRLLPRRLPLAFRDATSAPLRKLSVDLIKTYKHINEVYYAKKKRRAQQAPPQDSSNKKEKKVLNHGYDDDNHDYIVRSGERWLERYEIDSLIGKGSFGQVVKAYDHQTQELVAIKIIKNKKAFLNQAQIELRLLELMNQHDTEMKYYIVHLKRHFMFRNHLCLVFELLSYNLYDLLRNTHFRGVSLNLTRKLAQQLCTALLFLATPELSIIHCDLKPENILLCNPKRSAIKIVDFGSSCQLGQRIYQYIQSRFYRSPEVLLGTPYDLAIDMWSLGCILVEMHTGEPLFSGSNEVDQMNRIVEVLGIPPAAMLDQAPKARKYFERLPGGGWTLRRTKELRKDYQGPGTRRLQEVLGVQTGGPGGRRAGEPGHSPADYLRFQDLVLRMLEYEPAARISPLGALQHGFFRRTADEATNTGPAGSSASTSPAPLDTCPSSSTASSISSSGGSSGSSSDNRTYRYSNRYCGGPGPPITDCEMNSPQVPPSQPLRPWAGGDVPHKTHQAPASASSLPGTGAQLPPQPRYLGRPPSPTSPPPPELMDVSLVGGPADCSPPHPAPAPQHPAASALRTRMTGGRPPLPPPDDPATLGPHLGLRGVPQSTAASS

[10] = biological target: T10, EGFR(L858R) (Homo sapiens, UniProt P00533, L858R); assay: KINOMEscan panel screen; format: binding; conditions: read-out: Percent Control(%)
T10 construct: purchased DiscoveRx KINOMEscan (Ambit Biosciences)

[11] = biological target: T11, EGFR(L858R,T790M) (Homo sapiens, UniProt P00533, L858R/T790M); assay: KINOMEscan panel screen; format: binding; conditions: read-out: Percent Control(%)
T11 construct: purchased DiscoveRx KINOMEscan (Ambit Biosciences)

[12] = biological target: T12, EPHA1 (Homo sapiens, UniProt P21709); assay: KINOMEscan panel screen; format: binding; conditions: read-out: Percent Control(%)
T12 construct: purchased DiscoveRx KINOMEscan (Ambit Biosciences)
T12 sequence (P21709 26-976): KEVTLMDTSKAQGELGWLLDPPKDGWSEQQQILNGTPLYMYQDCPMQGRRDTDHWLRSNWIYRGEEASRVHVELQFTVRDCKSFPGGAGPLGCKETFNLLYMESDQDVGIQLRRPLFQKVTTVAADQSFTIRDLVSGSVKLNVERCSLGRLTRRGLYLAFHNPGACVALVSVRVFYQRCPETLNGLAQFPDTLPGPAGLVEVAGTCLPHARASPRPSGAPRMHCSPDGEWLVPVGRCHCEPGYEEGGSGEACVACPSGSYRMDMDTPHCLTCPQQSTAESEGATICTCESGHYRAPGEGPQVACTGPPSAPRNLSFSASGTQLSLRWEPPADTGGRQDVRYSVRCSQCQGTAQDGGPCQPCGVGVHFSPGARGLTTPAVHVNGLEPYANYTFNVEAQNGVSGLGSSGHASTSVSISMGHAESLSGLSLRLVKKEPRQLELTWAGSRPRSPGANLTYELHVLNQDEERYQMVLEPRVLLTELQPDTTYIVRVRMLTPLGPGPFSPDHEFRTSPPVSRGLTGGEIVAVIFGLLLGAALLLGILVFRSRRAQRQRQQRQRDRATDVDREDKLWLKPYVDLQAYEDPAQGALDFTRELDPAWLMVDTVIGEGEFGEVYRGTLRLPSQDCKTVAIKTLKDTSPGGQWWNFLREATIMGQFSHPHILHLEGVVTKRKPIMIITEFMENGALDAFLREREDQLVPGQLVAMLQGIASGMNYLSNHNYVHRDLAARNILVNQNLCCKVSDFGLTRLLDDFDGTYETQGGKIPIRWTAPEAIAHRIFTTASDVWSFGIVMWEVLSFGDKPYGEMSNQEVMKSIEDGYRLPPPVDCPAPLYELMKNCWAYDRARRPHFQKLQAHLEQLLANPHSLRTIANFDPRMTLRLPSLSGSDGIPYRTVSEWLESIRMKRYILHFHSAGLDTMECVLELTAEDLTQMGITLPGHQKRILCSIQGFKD

[13] = biological target: T13, EPHA7 (Homo sapiens, UniProt Q15375); assay: KINOMEscan panel screen; format: binding; conditions: read-out: Percent Control(%)
T13 construct: purchased DiscoveRx KINOMEscan (Ambit Biosciences)

[14] = biological target: T14, FAK (Homo sapiens, UniProt Q05397); assay: KINOMEscan panel screen; format: binding; conditions: read-out: Percent Control(%)
T14 construct: purchased DiscoveRx KINOMEscan (Ambit Biosciences)

[15] = biological target: T15, GRK4 (Homo sapiens, UniProt P32298); assay: KINOMEscan panel screen; format: binding; conditions: read-out: Percent Control(%)
T15 construct: purchased DiscoveRx KINOMEscan (Ambit Biosciences)

[16] = biological target: T16, JNK3 (Homo sapiens, UniProt P53779); assay: KINOMEscan panel screen; format: binding; conditions: read-out: Percent Control(%)
T16 construct: purchased DiscoveRx KINOMEscan (Ambit Biosciences)

[17] = biological target: T17, KIT (Homo sapiens, UniProt P10721); assay: KINOMEscan panel screen; format: binding; conditions: read-out: Percent Control(%)
T17 construct: DNA tag (qPCR read-out); purchased Ambit Biosciences (KINOMEscan service)

[18] = biological target: T18, LIMK1 (Homo sapiens, UniProt P53667); assay: KINOMEscan panel screen; format: binding; conditions: read-out: Percent Control(%)
T18 construct: purchased DiscoveRx KINOMEscan (Ambit Biosciences)

[19] = biological target: T19, LRRK2(G2019S) (Homo sapiens, UniProt Q5S007, G2019S); assay: KINOMEscan panel screen; format: binding; conditions: read-out: Percent Control(%)
T19 construct: purchased DiscoveRx KINOMEscan (Ambit Biosciences)

[20] = biological target: T20, LZK (Homo sapiens, UniProt O43283); assay: KINOMEscan panel screen; format: binding; conditions: read-out: Percent Control(%)
T20 construct: purchased DiscoveRx KINOMEscan (Ambit Biosciences)

[21] = biological target: T21, MEK2 (Homo sapiens, UniProt P36507); assay: KINOMEscan panel screen; format: binding; conditions: read-out: Percent Control(%)
T21 construct: purchased DiscoveRx KINOMEscan (Ambit Biosciences)
T21 sequence (P36507 whole entry): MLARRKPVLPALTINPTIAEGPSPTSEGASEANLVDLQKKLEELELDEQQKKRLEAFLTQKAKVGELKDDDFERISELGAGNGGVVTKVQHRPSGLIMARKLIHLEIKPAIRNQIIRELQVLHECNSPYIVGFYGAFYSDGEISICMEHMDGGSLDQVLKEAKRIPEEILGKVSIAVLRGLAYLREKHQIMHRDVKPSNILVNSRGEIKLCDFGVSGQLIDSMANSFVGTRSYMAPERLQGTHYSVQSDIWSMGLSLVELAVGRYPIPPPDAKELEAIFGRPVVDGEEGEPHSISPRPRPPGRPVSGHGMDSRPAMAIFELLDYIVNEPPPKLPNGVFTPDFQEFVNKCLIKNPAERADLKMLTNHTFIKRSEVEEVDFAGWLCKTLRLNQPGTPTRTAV

[22] = biological target: T22, MST4 (Homo sapiens, UniProt Q9P289); assay: KINOMEscan panel screen; format: binding; conditions: read-out: Percent Control(%)
T22 construct: purchased DiscoveRx KINOMEscan (Ambit Biosciences)
T22 sequence (Q9P289 whole entry): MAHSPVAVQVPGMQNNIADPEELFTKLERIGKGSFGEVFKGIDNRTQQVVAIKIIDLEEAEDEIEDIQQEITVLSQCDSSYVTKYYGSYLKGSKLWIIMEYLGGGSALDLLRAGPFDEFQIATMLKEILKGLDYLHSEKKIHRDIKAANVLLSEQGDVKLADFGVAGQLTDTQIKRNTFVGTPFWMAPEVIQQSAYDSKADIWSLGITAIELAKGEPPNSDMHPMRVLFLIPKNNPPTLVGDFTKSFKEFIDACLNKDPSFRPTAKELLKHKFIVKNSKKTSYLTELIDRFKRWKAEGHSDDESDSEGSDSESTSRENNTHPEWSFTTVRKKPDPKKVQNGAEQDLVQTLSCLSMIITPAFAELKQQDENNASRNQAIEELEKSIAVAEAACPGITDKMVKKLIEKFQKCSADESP

[23] = biological target: T23, MUSK (Homo sapiens, UniProt O15146); assay: KINOMEscan panel screen; format: binding; conditions: read-out: Percent Control(%)
T23 construct: purchased DiscoveRx KINOMEscan (Ambit Biosciences)

[24] = biological target: T24, MYLK4 (Homo sapiens, UniProt Q86YV6); assay: KINOMEscan panel screen; format: binding; conditions: read-out: Percent Control(%)
T24 construct: purchased DiscoveRx KINOMEscan (Ambit Biosciences)

[25] = biological target: T25, NDR1 (Homo sapiens, UniProt Q15208); assay: KINOMEscan panel screen; format: binding; conditions: read-out: Percent Control(%)
T25 construct: purchased DiscoveRx KINOMEscan (Ambit Biosciences)

[26] = biological target: T26, NEK5 (Homo sapiens, UniProt Q6P3R8); assay: KINOMEscan panel screen; format: binding; conditions: read-out: Percent Control(%)
T26 construct: purchased DiscoveRx KINOMEscan (Ambit Biosciences)
T26 sequence (Q6P3R8 whole entry): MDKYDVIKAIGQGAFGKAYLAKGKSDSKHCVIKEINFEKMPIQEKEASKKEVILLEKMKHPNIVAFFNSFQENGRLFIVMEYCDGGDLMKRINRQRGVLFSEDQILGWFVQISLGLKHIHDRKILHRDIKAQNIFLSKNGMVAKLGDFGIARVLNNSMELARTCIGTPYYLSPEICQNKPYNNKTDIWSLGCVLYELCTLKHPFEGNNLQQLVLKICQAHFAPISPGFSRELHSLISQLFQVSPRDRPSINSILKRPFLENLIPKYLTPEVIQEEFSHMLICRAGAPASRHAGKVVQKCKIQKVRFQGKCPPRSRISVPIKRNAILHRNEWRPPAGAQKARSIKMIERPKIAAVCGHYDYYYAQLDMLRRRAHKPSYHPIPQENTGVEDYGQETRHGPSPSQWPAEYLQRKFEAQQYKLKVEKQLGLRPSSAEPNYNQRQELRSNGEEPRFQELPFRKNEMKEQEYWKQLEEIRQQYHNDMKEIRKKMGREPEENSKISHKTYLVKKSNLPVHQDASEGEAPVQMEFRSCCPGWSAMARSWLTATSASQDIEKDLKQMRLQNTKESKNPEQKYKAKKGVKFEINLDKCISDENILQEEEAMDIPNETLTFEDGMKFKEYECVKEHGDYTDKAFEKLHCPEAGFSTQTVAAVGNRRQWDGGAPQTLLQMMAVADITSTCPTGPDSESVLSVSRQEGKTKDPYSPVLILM

[27] = biological target: T27, NIM1 (Homo sapiens, UniProt Q8IY84); assay: KINOMEscan panel screen; format: binding; conditions: read-out: Percent Control(%)
T27 construct: purchased DiscoveRx KINOMEscan (Ambit Biosciences)
T27 sequence (Q8IY84 whole entry): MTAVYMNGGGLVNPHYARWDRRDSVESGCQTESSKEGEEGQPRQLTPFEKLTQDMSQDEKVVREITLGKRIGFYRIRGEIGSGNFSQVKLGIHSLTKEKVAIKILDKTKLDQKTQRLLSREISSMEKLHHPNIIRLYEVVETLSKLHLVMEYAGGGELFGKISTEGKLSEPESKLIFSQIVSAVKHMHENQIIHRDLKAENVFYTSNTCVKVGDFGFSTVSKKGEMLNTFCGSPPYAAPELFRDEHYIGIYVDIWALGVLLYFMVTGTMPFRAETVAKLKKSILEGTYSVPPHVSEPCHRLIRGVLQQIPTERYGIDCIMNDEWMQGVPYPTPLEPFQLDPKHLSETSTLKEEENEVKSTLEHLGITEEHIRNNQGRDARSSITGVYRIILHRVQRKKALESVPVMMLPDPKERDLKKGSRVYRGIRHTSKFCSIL

[28] = biological target: T28, PIK3CB (Homo sapiens, UniProt P42338); assay: KINOMEscan panel screen; format: binding; conditions: read-out: Percent Control(%)
T28 construct: purchased DiscoveRx KINOMEscan (Ambit Biosciences)

[29] = biological target: T29, PLK3 (Homo sapiens, UniProt Q9H4B4); assay: KINOMEscan panel screen; format: binding; conditions: read-out: Percent Control(%)
T29 construct: purchased DiscoveRx KINOMEscan (Ambit Biosciences)

[30] = biological target: T30, RET(V804M) (Homo sapiens, UniProt P07949, V804M); assay: KINOMEscan panel screen; format: binding; conditions: read-out: Percent Control(%)
T30 construct: purchased DiscoveRx KINOMEscan (Ambit Biosciences)

[31] = biological target: T31, RPS6KA5(Kin.Dom.2-C-terminal) (Homo sapiens, UniProt O75582); assay: KINOMEscan panel screen; format: binding; conditions: read-out: Percent Control(%)
T31 construct: RPS6KA5(Kin.Dom.2-C-terminal); purchased DiscoveRx KINOMEscan (Ambit Biosciences)

[32] = biological target: T32, RSK1(Kin.Dom.1-N-terminal) (Homo sapiens, UniProt Q15418); assay: KINOMEscan panel screen; format: binding; conditions: read-out: Percent Control(%)
T32 construct: RSK1(Kin.Dom.1-N-terminal); purchased DiscoveRx KINOMEscan (Ambit Biosciences)

[33] = biological target: T33, SGK (Homo sapiens, UniProt O00141); assay: KINOMEscan panel screen; format: binding; conditions: read-out: Percent Control(%)
T33 construct: purchased DiscoveRx KINOMEscan (Ambit Biosciences)
T33 sequence (O00141 whole entry): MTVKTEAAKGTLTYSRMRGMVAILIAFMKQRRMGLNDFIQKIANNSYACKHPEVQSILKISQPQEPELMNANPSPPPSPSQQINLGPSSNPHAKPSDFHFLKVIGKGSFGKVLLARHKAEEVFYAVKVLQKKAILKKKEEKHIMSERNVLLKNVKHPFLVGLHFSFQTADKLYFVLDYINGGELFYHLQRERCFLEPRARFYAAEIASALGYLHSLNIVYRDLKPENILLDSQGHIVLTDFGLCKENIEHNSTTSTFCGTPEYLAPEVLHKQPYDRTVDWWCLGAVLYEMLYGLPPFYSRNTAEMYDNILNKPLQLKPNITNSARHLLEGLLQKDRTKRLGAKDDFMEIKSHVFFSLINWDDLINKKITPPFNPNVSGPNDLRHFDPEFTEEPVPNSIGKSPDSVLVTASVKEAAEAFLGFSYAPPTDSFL

[34] = biological target: T34, SRMS (Homo sapiens, UniProt Q9H3Y6); assay: KINOMEscan panel screen; format: binding; conditions: read-out: Percent Control(%)
T34 construct: purchased DiscoveRx KINOMEscan (Ambit Biosciences)

[35] = biological target: T35, TAOK2 (Homo sapiens, UniProt Q9UL54); assay: KINOMEscan panel screen; format: binding; conditions: read-out: Percent Control(%)
T35 construct: purchased DiscoveRx KINOMEscan (Ambit Biosciences)

[36] = biological target: T36, TBK1 (Homo sapiens, UniProt Q9UHD2); assay: KINOMEscan panel screen; format: binding; conditions: read-out: Percent Control(%)
T36 construct: purchased DiscoveRx KINOMEscan (Ambit Biosciences)

[37] = biological target: T37, TXK (Homo sapiens, UniProt P42681); assay: KINOMEscan panel screen; format: binding; conditions: read-out: Percent Control(%)
T37 construct: purchased DiscoveRx KINOMEscan (Ambit Biosciences)
T37 sequence (P42681 whole entry): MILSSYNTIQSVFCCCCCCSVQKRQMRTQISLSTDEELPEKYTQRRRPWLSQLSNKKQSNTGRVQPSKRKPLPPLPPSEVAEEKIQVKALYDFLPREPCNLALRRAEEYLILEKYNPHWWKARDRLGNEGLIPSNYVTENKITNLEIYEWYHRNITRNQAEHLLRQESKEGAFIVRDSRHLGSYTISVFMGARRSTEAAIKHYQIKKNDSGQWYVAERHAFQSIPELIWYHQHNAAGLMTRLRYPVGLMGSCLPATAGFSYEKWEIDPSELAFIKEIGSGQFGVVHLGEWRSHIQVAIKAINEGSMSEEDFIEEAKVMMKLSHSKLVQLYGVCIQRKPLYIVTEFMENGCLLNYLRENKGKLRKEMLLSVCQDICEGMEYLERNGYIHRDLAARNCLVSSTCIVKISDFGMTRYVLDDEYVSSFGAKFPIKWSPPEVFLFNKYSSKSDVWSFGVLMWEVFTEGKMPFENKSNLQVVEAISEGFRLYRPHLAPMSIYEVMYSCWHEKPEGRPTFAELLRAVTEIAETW

[38] = biological target: T38, VRK2 (Homo sapiens, UniProt Q86Y07); assay: KINOMEscan panel screen; format: binding; conditions: read-out: Percent Control(%)
T38 construct: purchased DiscoveRx KINOMEscan (Ambit Biosciences)
T38 sequence (Q86Y07 whole entry): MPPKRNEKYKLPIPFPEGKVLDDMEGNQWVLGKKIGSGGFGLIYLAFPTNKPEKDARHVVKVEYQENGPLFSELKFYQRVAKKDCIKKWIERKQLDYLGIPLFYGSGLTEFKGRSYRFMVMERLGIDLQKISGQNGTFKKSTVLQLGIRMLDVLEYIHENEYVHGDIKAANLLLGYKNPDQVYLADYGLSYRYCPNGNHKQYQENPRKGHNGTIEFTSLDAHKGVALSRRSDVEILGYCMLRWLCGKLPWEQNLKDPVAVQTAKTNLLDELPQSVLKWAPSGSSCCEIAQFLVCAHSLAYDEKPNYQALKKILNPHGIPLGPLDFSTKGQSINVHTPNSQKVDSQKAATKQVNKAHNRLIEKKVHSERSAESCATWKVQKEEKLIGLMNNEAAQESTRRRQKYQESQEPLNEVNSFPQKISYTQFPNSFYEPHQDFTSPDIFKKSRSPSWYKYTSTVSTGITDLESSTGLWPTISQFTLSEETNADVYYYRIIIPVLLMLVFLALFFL

[39] = biological target: T39, VEGFR2 (Homo sapiens, UniProt P35968); assay: KINOMEscan kinase binding assay (Kd)
T39 construct: DNA tag (qPCR read-out); purchased Ambit Biosciences (KINOMEscan service)

For `CC(C)(C)c1cc(NC(=O)Nc2ccc(Oc3ncnc4[nH]ncc34)c(F)c2)no1` [SKLB-677, 1-(4-(1H-pyrazolo[3,4-d]pyrimidin-4-yloxy)-3-fluorophenyl)-3-(5-tert-butylisoxazol-3-yl)urea], the remaining binding at 10 µM [1] was 5.8%, the remaining binding at 10 µM [2] was 5.2% and the remaining binding at 10 µM [3] was 3.3%. It also gave a remaining binding at 10 µM [4] of 2.7%, a remaining binding at 10 µM [5] of 66% and a remaining binding at 10 µM [6] of 0.6%. For the same compound, the remaining binding at 10 µM [7] was 73%, the remaining binding at 10 µM [8] was 52% and the remaining binding at 10 µM [9] was 41%. It also gave a remaining binding at 10 µM [10] of 29%, a remaining binding at 10 µM [11] of 75% and a remaining binding at 10 µM [12] of 9.2%. The remaining binding at 10 µM [13] was 0%, the remaining binding at 10 µM [14] was 84% and the remaining binding at 10 µM [15] was 45%. For the same compound, the remaining binding at 10 µM [16] was 18%, the remaining binding at 10 µM [17] was 0% and the remaining binding at 10 µM [18] was 25%. The remaining binding at 10 µM [19] was 78%, the remaining binding at 10 µM [20] was 93% and the remaining binding at 10 µM [21] was 5.9%. The remaining binding at 10 µM [22] was 24%, the remaining binding at 10 µM [23] was 0% and the remaining binding at 10 µM [24] was 78%. For the same compound, the remaining binding at 10 µM [25] was 58%, the remaining binding at 10 µM [26] was 9.8% and the remaining binding at 10 µM [27] was 33%. The remaining binding at 10 µM [28] was 100%, the remaining binding at 10 µM [29] was 100% and the remaining binding at 10 µM [30] was 1.9%. It also gave a remaining binding at 10 µM [31] of 100%, a remaining binding at 10 µM [32] of 100% and a remaining binding at 10 µM [33] of 29%. The remaining binding at 10 µM [34] was 57%, the remaining binding at 10 µM [35] was 0.35% and the remaining binding at 10 µM [36] was 70%. It also gave a remaining binding at 10 µM [37] of 88%, a remaining binding at 10 µM [38] of 100% and a Kd [39] of 11 nM.
